Assays:
VIM-1 = VIM-1 (Pseudomonas aeruginosa (strain ATCC 15692 / DSM 22644 / CIP 104116 / JCM 14847 / LMG 12228 / 1C / PRS 101 / PAO1), UniProt A0A0F7KYQ8); assay: biochemical; conditions: CCF2-FA substrate, 2 hours at 25° C
In short: (§1)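 Semi-log dose-response curves, fitted with a 4-parameter model, gave IC50s. The underlying signal was CCF2-FA fluorescence following 2 hours at 25° C with enzyme, substrate and inhibitor combined.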

IMP-1 = IMP-1 (Serratia marcescens, UniProt P52699); assay: biochemical; assay type: biochemical; conditions: CCF2-FA substrate, 2 hours at 25° C; read-out: IMP-1 IC50
In short: as §1

NDM-1 = NDM-1 (Klebsiella pneumoniae, UniProt C7C422); assay: biochemical; assay type: biochemical; conditions: CCF2-FA substrate, 2 hours at 25° C; read-out: NDM-1 IC50
In short: as §1

[1] = system: Serratia marcescens expressing IMP-1 (CL5741); assay type: cell-based; conditions: with imipenem 1 μg/ml; 95% inhibition of bacterial growth
In short: (§2)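 Restoration of imipenem susceptibility (1 μg/ml imipenem) was judged by absorbance after 22–24 h at 35° C. Test compound was added to bacteria suspended 1:100 in 1.1× CAMHB from overnight blood-agar cultures.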

[2] = system: Escherichia coli expressing NDM-1 (CLB30005, CLB30016); assay type: cell-based; conditions: with imipenem 1 μg/ml; 95% inhibition of bacterial growth
In short: as §2

[3] = system: Klebsiella pneumoniae expressing VIM-1 (IHMA599644); assay type: cell-based; conditions: with imipenem 1 μg/ml; 95% inhibition of bacterial growth
In short: as §2

[4] = system: P. aeruginosa expressing IMP-1, efflux− (MB9799); assay: Efflux: concentration of MBL inhibitor which restores susceptibility to imipenem; assay type: cell-based, Pseudomonas aeruginosa; conditions: imipenem at 2 μg/mL, in the presence of a class A, C, D serine β-lactamase inhibitor closely related to relebactam
Description: (§3) The strain background is Pseudomonas aeruginosa PAO1.

[5] = system: P. aeruginosa expressing IMP-1, efflux+ (MB9798); assay type: cell-based, Pseudomonas aeruginosa; conditions: for P. aeruginosa expressing IMP-1, efflux+ (MB9798) MITC95: imipenem at 2 μg/mL, in the presence of a class A, C, D serine β-lactamase inhibitor closely related to relebactam; for Efflux ratio: ratio MITC95 PA_9798/MITC95 PA_9799
Description: as §3

Sequence of NDM-1 (C7C422 whole entry, looked up, species assumed): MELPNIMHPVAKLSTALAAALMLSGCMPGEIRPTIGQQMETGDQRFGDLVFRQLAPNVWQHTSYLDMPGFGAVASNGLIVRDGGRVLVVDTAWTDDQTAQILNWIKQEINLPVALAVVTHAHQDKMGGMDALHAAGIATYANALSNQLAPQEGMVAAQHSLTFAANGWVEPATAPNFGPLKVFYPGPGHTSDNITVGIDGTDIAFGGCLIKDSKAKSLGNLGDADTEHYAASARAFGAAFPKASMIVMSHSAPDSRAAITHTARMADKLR
Sequence of IMP-1 (P52699 whole entry, looked up, species assumed): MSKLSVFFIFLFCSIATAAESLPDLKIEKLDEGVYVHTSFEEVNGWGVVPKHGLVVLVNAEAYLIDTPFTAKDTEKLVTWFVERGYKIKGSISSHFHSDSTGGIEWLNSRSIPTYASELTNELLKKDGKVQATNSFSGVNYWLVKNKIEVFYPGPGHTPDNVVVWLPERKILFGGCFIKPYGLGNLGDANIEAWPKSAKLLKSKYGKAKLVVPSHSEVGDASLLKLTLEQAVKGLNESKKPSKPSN

## Cc1ccc(-c2ccc(S(C)(=O)=O)c(S(N)(=O)=O)c2-c2nn[nH]n2)c2nc(N)sc12 [Example 193, 3-(2-amino-7-methylbenzo[d]thiazol-4-yl)-6-(methylsulfonyl)-2-(2H-tetrazol-5-yl)benzenesulfonamide]
VIM-1
  IC50: 106 pM
IMP-1
  IC50: 94.1 pM
NDM-1
  IC50: 136 pM
[1]
  Serratia marcescens expressing IMP-1 (CL5741) MITC95: 1.563 µM
[2]
  Escherichia coli expressing NDM-1 (CLB30016) MITC95: 3.125 µM
[3]
  Klebsiella pneumoniae expressing VIM-1 (IHMA599644) MITC95: 6.25 µM
[4]
  P. aeruginosa expressing IMP-1, efflux− (MB9799) MITC95: 1.563 µM
[5]
  P. aeruginosa expressing IMP-1, efflux+ (MB9798) MITC95: 6.25 µM
  Efflux ratio: 4.00

## NCCCS(=O)(=O)c1ccc(-c2cccc3sc(N)nc23)c(-c2nn[nH]n2)c1S(N)(=O)=O [Example 194, 3-(2-aminobenzo[d]thiazol-4-yl)-6-(3-aminopropylsulfonyl)-2-(2H-tetrazol-5-yl)benzenesulfonamide]
VIM-1
  IC50: 208 pM
IMP-1
  IC50: 154 pM
NDM-1
  IC50: 90.8 pM
[1]
  Serratia marcescens expressing IMP-1 (CL5741) MITC95: 0.7813 µM
[2]
  Escherichia coli expressing NDM-1 (CLB30016) MITC95: 0.7813 µM
[3]
  Klebsiella pneumoniae expressing VIM-1 (IHMA599644) MITC95: 1.563 µM
[4]
  P. aeruginosa expressing IMP-1, efflux− (MB9799) MITC95: 0.7813 µM
[5]
  P. aeruginosa expressing IMP-1, efflux+ (MB9798) MITC95: 0.3906 µM
  Efflux ratio: 0.50

## Cn1c(N)nc2c(-c3ccc(S(=O)(=O)CCCN)c(S(N)(=O)=O)c3-c3nn[nH]n3)cccc21 [Example 195, 3-(2-amino-1-methyl-1H-benzo[d]imidazol-4-yl)-6-(3-aminopropylsulfonyl)-2-(2H-tetrazol-5-yl)benzenesulfonamide]
VIM-1
  IC50: 155 pM
IMP-1
  IC50: 250 pM
NDM-1
  IC50: 260 pM
[1]
  Serratia marcescens expressing IMP-1 (CL5741) MITC95: 0.7813 µM
[2]
  Escherichia coli expressing NDM-1 (CLB30016) MITC95: 0.3906 µM
[3]
  Klebsiella pneumoniae expressing VIM-1 (IHMA599644) MITC95: 1.563 µM
[4]
  P. aeruginosa expressing IMP-1, efflux− (MB9799) MITC95: 0.7813 µM
[5]
  P. aeruginosa expressing IMP-1, efflux+ (MB9798) MITC95: 0.7813 µM
  Efflux ratio: 1.00

## N#Cc1cccc(-c2ccc(S(=O)(=O)C3CNC3)c(S(N)(=O)=O)c2-c2nn[nH]n2)c1N [Example 196, 2′-amino-4-(azetidin-3-ylsulfonyl)-3′-cyano-2-(2H-tetrazol-5-yl)-[1,1′-biphenyl]-3-sulfonamide]
VIM-1
  IC50: 233 pM
IMP-1
  IC50: 1540 pM
NDM-1
  IC50: 315 pM
[1]
  Serratia marcescens expressing IMP-1 (CL5741) MITC95: 1.563 µM
[2]
  Escherichia coli expressing NDM-1 (CLB30016) MITC95: 0.7813 µM
[3]
  Klebsiella pneumoniae expressing VIM-1 (IHMA599644) MITC95: 1.563 µM
[4]
  P. aeruginosa expressing IMP-1, efflux− (MB9799) MITC95: 0.7813 µM
[5]
  P. aeruginosa expressing IMP-1, efflux+ (MB9798) MITC95: 12.5 µM
  Efflux ratio: 16.00

## COC(=O)c1cccc(-c2ccc(S(=O)(=O)CCN)c(S(N)(=O)=O)c2-c2nn[nH]n2)c1N [Example 197, methyl 2-amino-4′-((2-aminoethyl)sulfonyl)-3′-sulfamoyl-2′-(2H-tetrazol-5-yl)-[1,1′-biphenyl]-3-carboxylate]
VIM-1
  IC50: 262 pM
IMP-1
  IC50: 554 pM
NDM-1
  IC50: 556 pM
[1]
  Serratia marcescens expressing IMP-1 (CL5741) MITC95: 1.563 µM
[2]
  Escherichia coli expressing NDM-1 (CLB30016) MITC95: 0.7813 µM
[3]
  Klebsiella pneumoniae expressing VIM-1 (IHMA599644) MITC95: 3.125 µM
[4]
  P. aeruginosa expressing IMP-1, efflux− (MB9799) MITC95: 1.563 µM
[5]
  P. aeruginosa expressing IMP-1, efflux+ (MB9798) MITC95: 12.5 µM
  Efflux ratio: 8.00

## NCCS(=O)(=O)c1ccc(-c2cccc3[nH]cnc23)c(-c2nn[nH]n2)c1S(N)(=O)=O [Example 198, 6-((2-aminoethyl)sulfonyl)-3-(1H-benzo[d]imidazol-4-yl)-2-(2H-tetrazol-5-yl)benzenesulfonamide]
VIM-1
  IC50: 206 pM
IMP-1
  IC50: 374 pM
NDM-1
  IC50: 238 pM
[1]
  Serratia marcescens expressing IMP-1 (CL5741) MITC95: 1.563 µM
[2]
  Escherichia coli expressing NDM-1 (CLB30016) MITC95: 0.7813 µM
[3]
  Klebsiella pneumoniae expressing VIM-1 (IHMA599644) MITC95: 1.563 µM
[4]
  P. aeruginosa expressing IMP-1, efflux− (MB9799) MITC95: 0.7813 µM
[5]
  P. aeruginosa expressing IMP-1, efflux+ (MB9798) MITC95: 0.7813 µM
  Efflux ratio: 1.00

## NCCS(=O)(=O)c1ccc(-c2cccc(C(=O)O)c2N)c(-c2nn[nH]n2)c1S(N)(=O)=O [Example 199, 2-Amino-4′-((2-aminoethyl)sulfonyl)-3′-sulfamoyl-2′-(2H-tetrazol-5-yl)-[1,1′-biphenyl]-3-carboxylic Acid]
VIM-1
  IC50: 646 pM
IMP-1
  IC50: 1840 pM
NDM-1
  IC50: 197 pM
[1]
  Serratia marcescens expressing IMP-1 (CL5741) MITC95: 12.5 µM
[2]
  Escherichia coli expressing NDM-1 (CLB30016) MITC95: 6.25 µM
[3]
  Klebsiella pneumoniae expressing VIM-1 (IHMA599644) MITC95: 25 µM
[4]
  P. aeruginosa expressing IMP-1, efflux− (MB9799) MITC95: 6.25 µM
[5]
  P. aeruginosa expressing IMP-1, efflux+ (MB9798) MITC95: 12.5 µM
  Efflux ratio: 2.00

## NS(=O)(=O)c1c(S(=O)(=O)C2CNC2)ccc(-c2ccnc3[nH]nnc23)c1-c1nn[nH]n1 [Example 200, 3-(3H-[1,2,3]triazolo[4,5-b]pyridin-7-yl)-6-(azetidin-3-ylsulfonyl)-2-(2H-tetrazol-5-yl)benzenesulfonamide]
VIM-1
  IC50: 21600 pM
IMP-1
  IC50: 13700 pM
NDM-1
  IC50: 5650 pM
[1]
  Serratia marcescens expressing IMP-1 (CL5741) MITC95: 25 µM
[2]
  Escherichia coli expressing NDM-1 (CLB30016) MITC95: 25 µM
[3]
  Klebsiella pneumoniae expressing VIM-1 (IHMA599644) MITC95: 100 µM
[4]
  P. aeruginosa expressing IMP-1, efflux− (MB9799) MITC95: 25 µM
[5]
  P. aeruginosa expressing IMP-1, efflux+ (MB9798) MITC95: 100 µM
  Efflux ratio: 4.00

## NS(=O)(=O)c1c(S(=O)(=O)C2CNC2)ccc(-c2cccc3scnc23)c1-c1nn[nH]n1 [Example 201, 6-(Azetidin-3-ylsulfonyl)-3-(benzo[d]thiazol-4-yl)-2-(2H-tetrazol-5-yl)benzenesulfonamide]
VIM-1
  IC50: 176 pM
IMP-1
  IC50: 153 pM
NDM-1
  IC50: 95.6 pM
[1]
  Serratia marcescens expressing IMP-1 (CL5741) MITC95: 1.563 µM
[2]
  Escherichia coli expressing NDM-1 (CLB30016) MITC95: 0.7813 µM
[3]
  Klebsiella pneumoniae expressing VIM-1 (IHMA599644) MITC95: 3.125 µM
[4]
  P. aeruginosa expressing IMP-1, efflux− (MB9799) MITC95: 0.7813 µM
[5]
  P. aeruginosa expressing IMP-1, efflux+ (MB9798) MITC95: 1.563 µM
  Efflux ratio: 2.00

## NCCS(=O)(=O)c1ccc(-c2cccc3c2nc(N)n3C2CNC2)c(-c2nn[nH]n2)c1S(N)(=O)=O [Example 202, 3-(2-amino-1-(azetidin-3-yl)-1H-benzo[d]imidazol-4-yl)-6-((2-aminoethyl)sulfonyl)-2-(2H-tetrazol-5-yl)benzenesulfonamide]
VIM-1
  IC50: 1100 pM
IMP-1
  IC50: 858 pM
NDM-1
  IC50: 2920 pM
[1]
  Serratia marcescens expressing IMP-1 (CL5741) MITC95: 3.125 µM
[2]
  Escherichia coli expressing NDM-1 (CLB30016) MITC95: 1.563 µM
[3]
  Klebsiella pneumoniae expressing VIM-1 (IHMA599644) MITC95: 3.125 µM
[4]
  P. aeruginosa expressing IMP-1, efflux− (MB9799) MITC95: 1.563 µM
[5]
  P. aeruginosa expressing IMP-1, efflux+ (MB9798) MITC95: 6.25 µM
  Efflux ratio: 4.00

## NC1CCC(c2ccc(S(=O)(=O)CC3CNC3)c(S(N)(=O)=O)c2-c2nnn[nH]2)CC1 (stereo not drawn) [Example 203, 3-(4-aminocyclohexyl)-6-((azetidin-3-ylmethyl)sulfonyl)-2-(1H-tetrazol-5-yl)benzenesulfonamide]
VIM-1
  IC50: 591 pM
IMP-1
  IC50: 23000 pM
NDM-1
  IC50: 11200 pM
[1]
  Serratia marcescens expressing IMP-1 (CL5741) MITC95: 1.563 µM
[2]
  Escherichia coli expressing NDM-1 (CLB30016) MITC95: 3.125 µM
[3]
  Klebsiella pneumoniae expressing VIM-1 (IHMA599644) MITC95: 1.563 µM
[4]
  P. aeruginosa expressing IMP-1, efflux− (MB9799) MITC95: 0.7813 µM
[5]
  P. aeruginosa expressing IMP-1, efflux+ (MB9798) MITC95: 3.125 µM
  Efflux ratio: 4.00

## NS(=O)(=O)c1c(S(=O)(=O)CC2CNC2)ccc([C@H]2CC[C@H](N)CC2)c1-c1nnn[nH]1 [Example 204, 3-((1r,4r)-4-aminocyclohexyl)-6-((azetidin-3-ylmethyl)sulfonyl)-2-(1H-tetrazol-5-yl)benzenesulfonamide]
VIM-1
  IC50: 1040 pM
IMP-1
  IC50: 37500 pM
NDM-1
  IC50: 16200 pM
[1]
  Serratia marcescens expressing IMP-1 (CL5741) MITC95: 1.563 µM
[2]
  Escherichia coli expressing NDM-1 (CLB30016) MITC95: 0.7813 µM
[3]
  Klebsiella pneumoniae expressing VIM-1 (IHMA599644) MITC95: 1.563 µM
[4]
  P. aeruginosa expressing IMP-1, efflux− (MB9799) MITC95: 0.7813 µM
[5]
  P. aeruginosa expressing IMP-1, efflux+ (MB9798) MITC95: 1.563 µM
  Efflux ratio: 2.00

## NS(=O)(=O)c1c(S(=O)(=O)CC2CNC2)ccc([C@H]2CC[C@@H](N)CC2)c1-c1nnn[nH]1 [Example 205, 3-((1s, 4s)-4-aminocyclohexyl)-6-((azetidin-3-ylmethyl)sulfonyl)-2-(1H-tetrazol-5-yl)benzenesulfonamide]
VIM-1
  IC50: 6640 pM
IMP-1
  IC50: 82500 pM
NDM-1
  IC50: 44600 pM
[1]
  Serratia marcescens expressing IMP-1 (CL5741) MITC95: 3.125 µM
[2]
  Escherichia coli expressing NDM-1 (CLB30016) MITC95: 1.563 µM
[3]
  Klebsiella pneumoniae expressing VIM-1 (IHMA599644) MITC95: 3.125 µM
[4]
  P. aeruginosa expressing IMP-1, efflux− (MB9799) MITC95: 3.125 µM
[5]
  P. aeruginosa expressing IMP-1, efflux+ (MB9798) MITC95: 6.25 µM
  Efflux ratio: 2.00

Source: patent US10227331B2 (priority 2015, dated 2019)
